Results on four compounds are retold here after ChEMBL document CHEMBL3867461, “Design, synthesis, and evaluation of (2S,4R)-Ketoconazole sulfonamide analogs as potential treatments for Metabolic Syndrome” (Bioorg Med Chem Lett, 2016).

SMILES strings stand for the structures.

Format in all cases: ADME, organism-based, Cavia porcellus
What all share (conditions): in vivo

Data set [1] is described as follows: AUC (0 to infinity) in Hartley guinea pig at 1 mg/kg, iv administered as single dose. The arrangement: dose 1 mg/kg, route intravenous, time infinity.
Data set [2] in a line: Tmax in Hartley guinea pig at 1 mg/kg, iv administered as single dose.
Data set [3] can be described thus: Cmax in Hartley guinea pig at 10 mg/kg, po administered as single dose. Also noted: dose 10 mg/kg, route oral.
Data set [4] in a line: Cmax in Hartley guinea pig at 1 mg/kg, iv administered as single dose. The arrangement: dose 1 mg/kg, route intravenous.
Data set [5] is described as follows: Volume of distribution in Hartley guinea pig at 1 mg/kg, iv administered as single dose.
Data set [6] is described as follows: Tmax in Hartley guinea pig at 10 mg/kg, po administered as single dose.
Data set [7] in a line: Oral bioavailability in Hartley guinea pig at 10 mg/kg.
Data set [8] is described as follows: AUC (0 to infinity) in Hartley guinea pig at 10 mg/kg, po administered as single dose. The arrangement: dose 10 mg/kg, route oral, time infinity.

With `O=S(=O)(C1CC1)N1CCN(c2ccc(OC[C@@H]3CO[C@@](Cn4ccnc4)(c4ccc(Cl)cc4Cl)O3)cc2)CC1`, the AUC(0-inf) in data set [1] was found to be 715 ng·h/mL; in data set [8] it was 7580 ng·h/mL. Further, the time to peak (Tmax) came to 4.8 min in data set [2] and 90 min in data set [6]. The maximum concentration (Cmax) in data set [3] was found to be 1560 ng/mL; in data set [4], 514 ng/mL. This compound yielded a volume of distribution (Vd) in data set [5] of 2.9 L/kg. Besides, the bioavailability in data set [7] came out at 98.5%.
For the compound `N#CCS(=O)(=O)N1CCN(c2ccc(OC[C@@H]3CO[C@@](Cn4ccnc4)(c4ccc(Cl)cc4Cl)O3)cc2)CC1`, the area under the curve AUC(0-inf) in data set [1] was found to be 1160 ng·h/mL; in data set [8], 4600 ng·h/mL. In addition, the Tmax in data set [2] amounted to 4.8 min; in data set [6], 40.2 min. In addition, the Cmax in data set [3] stood at 1970 ng/mL; in data set [4] it was 2090 ng/mL. In data set [5], this compound displayed a distribution volume (Vd) of 2.5 L/kg. In data set [7], this compound showed a bioavailability of 39.5%.
`CCS(=O)(=O)N1CCN(c2ccc(OC[C@@H]3CO[C@@](Cn4ccnc4)(c4ccc(Cl)cc4Cl)O3)cc2)CC1`: the values for the total exposure AUC(0-inf) in data set [1] and in data set [8] were 560 ng·h/mL and 3710 ng·h/mL, respectively. The Tmax in data set [2] amounted to 6 min; in data set [6] it was 70.2 min. Besides, the Cmax in data set [3] was determined as 710 ng/mL; in data set [4], 446 ng/mL. Also, in data set [5], the Vd came to 4.4 L/kg. This compound displayed a bioavailability in data set [7] of 61.4%.
With `CC(C)S(=O)(=O)N1CCN(c2ccc(OC[C@@H]3CO[C@@](Cn4ccnc4)(c4ccc(Cl)cc4Cl)O3)cc2)CC1`, the area under the curve AUC(0-inf) in data set [1] is 547 ng·h/mL; in data set [8], 571 ng·h/mL. Also, the figures for the time to peak (Tmax) in data set [2] and in data set [6] were 11.4 min and 40.2 min, respectively. In addition, the values for the Cmax in data set [3] and in data set [4] were 358 ng/mL and 534 ng/mL, respectively. The distribution volume (Vd) in data set [5] is 3 L/kg. In addition, the bioavailability in data set [7] was 10.4%.

As usually defined, the AUC(0-inf) is total exposure, with the tail of the curve extrapolated. A low value points to less exposure. Broadly, the Tmax is the time at which the peak concentration occurs. By Cmax is commonly meant the maximum level reached in the sampled fluid or tissue. As usually defined, the Vd is the apparent volume that relates the amount in the body to the concentration in plasma or blood. Low values mean confinement near the circulation, high ones extensive tissue distribution. A word on the bioavailability: it is the share of a dose that reaches the circulation, judged against a reference dose that is usually intravenous.
